Reference: publication PMC12040169 (PLOS Biology, 2025)

Assay: in vitro
Conditions: human, hela cells, % viability

| SMILES | viability at 28.5 h, 10 µM |
| --- | --- |
| O=C(Cn1c(=O)n(Cc2ccco2)c2ncccc21)N1CCCCC1 [CBK283862] | 89.2% |
| O=C(CC1CCCC1)NCCn1nc(-c2ccco2)ccc1=O [CBK283864] | 106% |
| O=c1[nH]nc(-c2cccs2)n1-c1ccncc1 [CBK283868] | 93.2% |
| CCN(CC)C(=O)Cn1nc2c(C)cc3cc(C)ccc3n2c1=O [CBK283871] | 86.4% |
| Cc1ccc2c(c1)cc(C)c1nn(CC(=O)N3CCCC3)c(=O)n12 [CBK283872] | 101% |
| Cc1ccc2c(c1)cc(C)c1nn(CC(=O)NC(C)C)c(=O)n12 [CBK283874] | 83.5% |
| Cc1ccc2c(c1)cc(C)c1nn(CC(=O)NC(C)(C)C)c(=O)n12 [CBK283875] | 87.5% |
| Cc1cc(C)c2c(c1)cc(C)c1nn(CC(=O)NC3CC3)c(=O)n12 [CBK283877] | 83.5% |
| Cc1cc2ccccc2n2c(=O)n(CC(=O)N3CCCC3)nc12 [CBK283880] | 101% |
| Cc1cc2ccccc2n2c(=O)n(CC(=O)NC3CCCC3)nc12 [CBK283884] | 79.7% |
| CC(NC(=O)c1ncoc1-c1ccccc1)c1ccccn1 (stereo not shown) [CBK283889] | 92.6% |
| CCn1c(=O)n(CC(=O)N2CCCC3CCCCC32)c2cccnc21 (stereo not shown) [CBK283893] | 87.3% |
| CCn1c(=O)n(CC(=O)NCc2ccc(F)cc2)c2cccnc21 [CBK283901] | 87.8% |
| CN(C)C(=O)Cn1c(=O)n(Cc2cccs2)c2ncccc21 [CBK283902] | 81.7% |
| CCn1c(=O)n(CC(=O)N2CCCC2)c2cccnc21 [CBK283904] | 107% |
| Cn1c(=O)n(CC(=O)NCc2ccc(F)cc2)c2cccnc21 [CBK283908] | 86.6% |
| Cn1c(=O)n(CC(=O)NCCc2ccccc2)c2cccnc21 [CBK283910] | 82.8% |
| Cn1c(=O)n(CC(=O)NCc2cccc(F)c2)c2cccnc21 [CBK283911] | 105% |
| Cc1ccnn1CCC(=O)N1CCn2cc(C(F)(F)F)nc2C1 [CBK283912] | 110% |

| SMILES | viability at 28.5 h, 10 µM |
| --- | --- |
| Cn1c(=O)n(CC(=O)Nc2ccc(F)cc2)c2cccnc21 [CBK283919] | 101% |
| C=CCNC(=O)C1CCN(c2nc3ccccc3n2CC)CC1 [CBK283920] | 113% |
| CCn1c(N2CCC(C(=O)NC3CC3)CC2)nc2ccccc21 [CBK283922] | 92.7% |
| O=C(NC1CCCc2c1cnn2-c1ccc(F)cc1)C1CC1 (stereo not shown) [CBK283928] | 111% |
| O=C(CN1CCCC1)NC1CCCc2c1cnn2-c1ccc(F)cc1 (stereo not shown) [CBK283930] | 91.5% |
| CC(C)n1c(=O)n(CCN2CCCCC2)c2cccnc21 [CBK283932] | 95.4% |
| c1ccc(CNc2c(-c3ccco3)nc3cnccn23)cc1 [CBK283933] | 90.6% |
| O=C(Cn1ccnc1)N1CCCCC1c1nc2ccccc2[nH]1 (stereo not shown) [CBK283936] | 107% |
| COc1ccc(-c2ocnc2C(=O)NCCc2ccccc2F)cc1 [CBK283941] | 90% |
| O=C(CN1C(=O)N2CCN=C2c2ccccc21)N1CCCC1 [CBK283945] | 91.9% |
| CC1CCN(C(=O)CN2C(=O)N3CCN=C3c3ccccc32)CC1 [CBK283946] | 93.6% |
| Cc1nc2c(c(=O)[nH]1)CN(Cc1ccc(Cl)c(Cl)c1)CC2 [CBK283949] | 88.7% |
| Cc1nc2c(c(=O)[nH]1)CN(Cc1sccc1C)CC2 [CBK283950] | 91.1% |
| Cc1nc2c(c(=O)[nH]1)CN(Cc1cc(F)ccc1F)CC2 [CBK283953] | 86.9% |
| C=CCNC(=O)C1CCN(c2nc3ccccc3n2C)CC1 [CBK283955] | 92% |
| CC1CC(C)CN(C(=O)CN2C(=O)N3CCN=C3c3ccccc32)C1 (stereo not shown) [CBK283960] | 90% |
| CN(C)C(=O)CN1C(=O)N2CCN=C2c2ccccc21 [CBK283961] | 94.7% |
| O=C1NC2(CCN(C(=O)Cc3ccsc3)CC2)Nc2ccccc21 [CBK283963] | 94.7% |
